Article PMC7669869, “AdipoR1/AdipoR2 dual agonist recovers nonalcoholic steatohepatitis and related fibrosis via endoplasmic reticulum-mitochondria axis” (Nature Communications, 2020)
Non-standard residues stand in square brackets, D forms with d. Residues, ends and D or L forms follow the SMILES beside them. Nva = CCC[C@H](N)C(=O)O

Tests used:
HFD induced NASH mice = experiment: HFD mice: serum and liver biochemical assays (ALT, FFA, LDL-C, hepatic TG, glycogen); assay type: in vivo, mouse
Description: Male C57BL/6J mice of 6–8 weeks of age (20–24 g) were used in these experiments including the NAFLD model and liver fibrosis model. The mice were purchased from Guangdong Medical Laboratory Animal Center and housed in standard isolator cages and maintained on a room temperature of 25 °C and a 12 h:12 h light/dark cycle. At the end of the experiments, mice were fasted 8 h prior to sacrifice. Liver tissue and/or epididymal adipose tissue were flash frozen in liquid nitrogen (with or without RNAlater (TransGen Biotech, China)) and stored at −80 °C for future use, or fixed in 10% paraformaldehyde for histological assays. Blood samples were obtained from the posterior venous plexus of the eyes of anesthetized mice, Blood was separated by centrifugation at 1000g for 15 min Serum was then stored at −80 °C. The ethical approval has been obtained from Animal Care and Use Committee of the Sun Yat-sen University. All animals were maintained in pathogen-free conditions and cared for in accordance with policies and certification of the Association for Assessment and Accreditation of Laboratory Animal Care International (AAALAC International).
The NASH model was conducted with feeding a HFD for 16 weeks combine with a MCD diet (Methionine/Choline Deficient Diet, Medicience, China) in the last 4 weeks. […]
The levels of ALT, AST, TC and TG in serum were determined using certain commercial assay kits (Nanjing Jiancheng Bioengineering Institute, China). Fasting adiponectin and insulin were quantified in plasma samples using corresponding commercially available Elisa kits (Cloud-Clone Crop, USA).
The levels of TG and HYP in liver tissue were detected with certain commercial assay kit (Nanjing Jiancheng Bioengineering Institute, China). […] The cryostat-cut slices were stained with freshly prepared Oil Red O working solution for 7 min Two independent experimenters who were blinded to the treatment evaluated the staining slides and analyzed the score for steatosis, glucogen accumulation and collagen proliferation area.

[1] = system: gene expression in PA induced HepG2 cells; experiment: Quantitative RT-PCR in PA induced HepG2 cells; assay type: cell-based, human; settings: for IL-1a mRNA, relative expression, Supplementary Figure 11a / IL-6 mRNA, relative expression, Supplementary Figure 11a / IL-8 mRNA, relative expression, Supplementary Figure 11a / TNFa mRNA, relative expression, Supplementary Figure 11a: PA induced HepG2 cells, PA+JT003
Description: Hepatoma carcinoma cell line HepG2 and human hepatic activated stellate cell line LX2 used in this study were purchased from Type Culture Collection of the Chinese Academy of Sciences (Shanghai, China). Cells were cultured in Dulbecco’s modified Eagle’s medium (DMEM) with 10% fetal bovine serum (FBS), supplemented with 1% penicillin–streptomycin (ThermoFisher Scientific, USA) at 37 °C in a humidified atmosphere of 5% CO2. In PA (Sigma, USA) induced lipid accumulation cell model, HepG2 cells were seeded into a 6-well plate at 5E5 cells per well. 0.25 mM PA and/or 200 μM candidate peptides were co-incubated with cells for 24 h. Then Oil Red O staining was performed to evaluate the accumulation of lipid droplets. BSA (Sigma, USA) was used in this experiment as the negative control. For LX2 cells, 2E5 cells were seeded, then the adherent cells were exposed to 200 μM candidate peptides for another 48 h. Next, the cell protein was obtained and western blotting was performed. Candidate peptides were diluted in DMEM in a stock concentration of 1 M.
Liver total RNA was extracted by using Trizol reagent following the manufacture’s instruction (TransGen Biotech, China). The concentration of RNA was measured by Nanodrop 2000 (ThermoFisher Scientific, USA). cDNA was transcribed from 10ug total RNA with First Strand cDNA synthesis Super Mix (TransGen Biotech, China). The cDNA was diluted 1/50 and 1.0 uL were used as a template for qPCR. qPCR was performed with SYBR Green qPCR Super Mix (TransGen Biotech, China) in the Light Cycler 480 Real-Time PCR System (Roche, Swiss). Reference gene β-actin was used for data normalization. mRNA expression was analyzed with specific primers listed in Supplementary Table 2.

AdipoR2 = molecular target: T1, AdipoR2 (Homo sapiens, UniProt Q86V24); experiment: Competition binding assay vs globular adiponectin (western blot), AdipoR2 overexpression cells; settings: JT003 4 h, then 50 μg ml−1 gAd155–161 4 h, in words
T1 construct: His; host or cells: HEK293
T1 sequence (Q86V24 1-386): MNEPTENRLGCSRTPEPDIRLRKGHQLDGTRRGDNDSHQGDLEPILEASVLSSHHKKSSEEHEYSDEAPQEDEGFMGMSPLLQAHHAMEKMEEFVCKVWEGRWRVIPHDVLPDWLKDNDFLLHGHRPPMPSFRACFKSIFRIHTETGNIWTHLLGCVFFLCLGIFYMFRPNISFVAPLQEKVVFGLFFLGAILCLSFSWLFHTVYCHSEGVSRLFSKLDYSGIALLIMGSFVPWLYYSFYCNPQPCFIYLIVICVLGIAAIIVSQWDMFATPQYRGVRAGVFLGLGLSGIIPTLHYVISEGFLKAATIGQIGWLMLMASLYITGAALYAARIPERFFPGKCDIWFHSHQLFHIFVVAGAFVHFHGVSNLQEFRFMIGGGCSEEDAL
Description: Different concentration of JT003 were incubated with AdipoR1 or AdipoR2 overexpression HEK293 cell line for 4 h. After that, 50 μg ml^−1 gAd155–161 were added for another 4 h incubation. The binding of gAd155–161 to the cells were measured via western blot assay.

## CCC[C@H](NC(=O)[C@@H]1CCCN1)C(=O)N[C@@H](CC(C)C)C(=O)N[C@@H](Cc1ccc(O)cc1)C(=O)N[C@@H](Cc1ccc(O)cc1)C(=O)N[C@@H](Cc1ccccc1)C(=O)N[C@@H](C)C(N)=O [JT003] (H-P[Nva]LYYFA-NH2)
HFD induced NASH mice; JT003 500 μg kg−1, in words
  decrease of the circulating lipid in the HFD group: reverted
HFD induced NASH mice; JT003 500 μg kg−1 i.p. daily 4 weeks, in words
  Hepatocytes TG and serum LDL-C contents: obviously reduced
HFD induced NASH mice; JT003 500 μg kg−1 i.p. daily 4 weeks, vs HFD, in words
  ALT level: reduced
[1]; HepG2, 0.25 mM PA + 200 μM JT003, in words
  lipogenesis (FAS, SREBP-1C, SREBP-2 and ACC1) and fatty acid β-oxidation (ACOX, LCAD and PDK4) genes: meliorated notably
[1]; PA induced HepG2, 200 μM JT003, in words
  inflammatory factors and ER-mitochondrial axis dysfunction (mRNA): meliorated notably
[1]; replicate 1
  IL-1a mRNA, relative expression, Supplementary Figure 11a: 1.056
  IL-6 mRNA, relative expression, Supplementary Figure 11a: 0.3197
  IL-8 mRNA, relative expression, Supplementary Figure 11a: 0.8479
  TNFa mRNA, relative expression, Supplementary Figure 11a: 0.6008
[1]; replicate 2
  IL-1a mRNA, relative expression, Supplementary Figure 11a: 0.8256
  IL-6 mRNA, relative expression, Supplementary Figure 11a: 0.3197
  IL-8 mRNA, relative expression, Supplementary Figure 11a: 0.8134
  TNFa mRNA, relative expression, Supplementary Figure 11a: 0.8039
[1]; replicate 3
  IL-1a mRNA, relative expression, Supplementary Figure 11a: 0.9853
  IL-6 mRNA, relative expression, Supplementary Figure 11a: 0.4368
  IL-8 mRNA, relative expression, Supplementary Figure 11a: 0.8277
  TNFa mRNA, relative expression, Supplementary Figure 11a: 0.7928
[1]; replicate 4
  IL-1a mRNA, relative expression, Supplementary Figure 11a: 0.9145
  IL-6 mRNA, relative expression, Supplementary Figure 11a: 0.3522
  IL-8 mRNA, relative expression, Supplementary Figure 11a: 0.8368
  TNFa mRNA, relative expression, Supplementary Figure 11a: 0.7583
AdipoR2
  competitive binding to globular adiponectin, AdipoR2 overexpression cells: more JT003 cause less globular adiponectin binding
